The text below walks through data of the supplement of paper PMC10307832.

Common to all, as to assay: relative viability (nuclei count vs DMSO), 5 days (fraction); higher = more cells survive
Compound in the assay “Motesanib + Trametinib”: CC1(C)CNc2cc(NC(=O)c3cccnc3NCc3ccncc3)ccc21 [Motesanib] + CC(=O)Nc1cccc(-n2c(=O)n(C3CC3)c(=O)c3c(Nc4ccc(I)cc4F)n(C)c(=O)c(C)c32)c1 [Trametinib] (partner 0.02 µM)
A digest of the protocol: (§1)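 The day after seeding in 1536-well plates, lung cancer cell lines were treated by pin tool with a single drug, or with a fixed anchor-drug dose together with five library-drug doses (not always all listed) in √10 steps. After 5 days, a combined fix-and-stain solution (final 0.05% Triton X-100, 1% formaldehyde, 1 ug/ml Hoechst) was added. Nuclei counted on 4× images gave relative viability as treated counts over vehicle counts, reported as the median of duplicate plates.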

Compound in the assay “Motesanib + Alpelisib”: CC1(C)CNc2cc(NC(=O)c3cccnc3NCc3ccncc3)ccc21 [Motesanib] + Cc1nc(NC(=O)N2CCC[C@H]2C(N)=O)sc1-c1ccnc(C(C)(C)C(F)(F)F)c1 [Alpelisib] (partner 2 µM)
A digest of the protocol: as §1

Compound in the assay “Motesanib + Phenformin”: CC1(C)CNc2cc(NC(=O)c3cccnc3NCc3ccncc3)ccc21 [Motesanib] + N=C(N)NC(=N)NCCc1ccccc1 [Phenformin] (partner 250 µM)
A digest of the protocol: as §1

Compound in assay [1]: C[C@@]1(C(=O)Nc2ccc(F)nc2)CCCN1c1nc(Nc2cc(C3CC3)n[nH]2)c2cccn2n1 + O=C(CCCCCCC(=O)Nc1ccccc1)NO [Vorinostat] (partner 1 µM)
An outline of the steps: as §1

RERF-LC-KJ: the relative viability in the assay with Motesanib + Trametinib (first compound 0.01 µM) amounted to 0.88; with Motesanib + Trametinib (first compound 0.03162 µM), 0.875; in the assay with Motesanib + Trametinib (first compound 0.1 µM) it was 0.805; with Motesanib + Trametinib (first compound 0.3162 µM), 0.845; with Motesanib + Trametinib (first compound 1 µM), 0.909; with Motesanib + Alpelisib (first compound 0.01 µM) it was 0.814. Also, the relative viability with Motesanib + Alpelisib (first compound 0.03162 µM) came to 0.805; with Motesanib + Alpelisib (first compound 0.1 µM) it was 0.854; with Motesanib + Alpelisib (first compound 0.3162 µM) it was 0.642; in the assay with Motesanib + Alpelisib (first compound 1 µM), 0.86; with Motesanib + Phenformin (first compound 0.01 µM) it was 0.462; with Motesanib + Phenformin (first compound 0.03162 µM), 0.389. Further, the relative viability with Motesanib + Phenformin (first compound 0.1 µM) turned out to be 0.407; with Motesanib + Phenformin (first compound 0.3162 µM), 0.373; in the assay with Motesanib + Phenformin (first compound 1 µM), 0.467; in assay [1] (first compound 0.04 µM), 0.747; in assay [1] (first compound 0.1265 µM) it was 0.605; in assay [1] (first compound 0.4 µM), 0.621. In addition, the relative viability in assay [1] (first compound 1.265 µM) amounted to 0.467.
As for SK-LU-1, the relative viability in the assay with Motesanib + Trametinib (first compound 0.01 µM) is 0.424; in the assay with Motesanib + Trametinib (first compound 0.03162 µM), 0.591; in the assay with Motesanib + Trametinib (first compound 0.1 µM) it was 0.476; with Motesanib + Trametinib (first compound 0.3162 µM) it was 0.536; in the assay with Motesanib + Trametinib (first compound 1 µM), 0.544; in the assay with Motesanib + Alpelisib (first compound 0.01 µM), 1.11. The relative viability with Motesanib + Alpelisib (first compound 0.03162 µM) is 1.07; with Motesanib + Alpelisib (first compound 0.1 µM), 1.17; in the assay with Motesanib + Alpelisib (first compound 0.3162 µM) it was 0.93; in the assay with Motesanib + Alpelisib (first compound 1 µM), 1.05; with Motesanib + Phenformin (first compound 0.01 µM), 0.489; in the assay with Motesanib + Phenformin (first compound 0.03162 µM), 0.5. Also, the relative viability with Motesanib + Phenformin (first compound 0.1 µM) stood at 0.539; with Motesanib + Phenformin (first compound 0.3162 µM), 0.569; with Motesanib + Phenformin (first compound 1 µM) it was 0.591; in assay [1] (first compound 0.04 µM) it was 0.804; in assay [1] (first compound 0.1265 µM) it was 0.761; in assay [1] (first compound 0.4 µM), 0.55. Further, the relative viability in assay [1] (first compound 1.265 µM) was determined as 0.367.
On to SK-MES-1, for which the relative viability in the assay with Motesanib + Trametinib (first compound 0.01 µM) is 0.575; with Motesanib + Trametinib (first compound 0.03162 µM), 0.587; with Motesanib + Trametinib (first compound 0.1 µM) it was 0.593; with Motesanib + Trametinib (first compound 0.3162 µM) it was 0.565; with Motesanib + Trametinib (first compound 1 µM), 0.617; in the assay with Motesanib + Alpelisib (first compound 0.01 µM), 1.04. For the same cell line, the relative viability is 0.948 with Motesanib + Alpelisib (first compound 0.03162 µM); 0.961 with Motesanib + Alpelisib (first compound 0.1 µM); 0.927 with Motesanib + Alpelisib (first compound 0.3162 µM); 0.995 in the assay with Motesanib + Alpelisib (first compound 1 µM); 0.624 with Motesanib + Phenformin (first compound 0.01 µM); 0.588 with Motesanib + Phenformin (first compound 0.03162 µM). Further, the relative viability with Motesanib + Phenformin (first compound 0.1 µM) was determined as 0.714; in the assay with Motesanib + Phenformin (first compound 0.3162 µM), 0.703; with Motesanib + Phenformin (first compound 1 µM), 0.658; in assay [1] (first compound 0.04 µM), 1.21; in assay [1] (first compound 0.1265 µM), 1.05; in assay [1] (first compound 0.4 µM) it was 0.859. Moreover, the relative viability in assay [1] (first compound 1.265 µM) is 0.354.
In the case of SW 1573, the relative viability with Motesanib + Trametinib (first compound 0.01 µM) stood at 0.613; with Motesanib + Trametinib (first compound 0.03162 µM) it was 0.503; in the assay with Motesanib + Trametinib (first compound 0.1 µM), 0.721; in the assay with Motesanib + Trametinib (first compound 0.3162 µM) it was 0.593; in the assay with Motesanib + Trametinib (first compound 1 µM) it was 0.628; with Motesanib + Alpelisib (first compound 0.01 µM) it was 0.825. The relative viability turned out to be 0.759 with Motesanib + Alpelisib (first compound 0.03162 µM); 0.75 with Motesanib + Alpelisib (first compound 0.1 µM); 0.67 with Motesanib + Alpelisib (first compound 0.3162 µM); 0.821 in the assay with Motesanib + Alpelisib (first compound 1 µM); 0.468 with Motesanib + Phenformin (first compound 0.01 µM); 0.343 with Motesanib + Phenformin (first compound 0.03162 µM). The relative viability with Motesanib + Phenformin (first compound 0.1 µM) turned out to be 0.388; in the assay with Motesanib + Phenformin (first compound 0.3162 µM), 0.36; with Motesanib + Phenformin (first compound 1 µM) it was 0.421; in assay [1] (first compound 0.04 µM), 0.667; in assay [1] (first compound 0.1265 µM), 0.585; in assay [1] (first compound 0.4 µM) it was 0.482. Further, in assay [1] (first compound 1.265 µM), the relative viability came out at 0.263.
